Like-named read-outs stand apart in the source and are kept apart here.
Legend:
[1] = target: human TRPV1 receptor (hTRPV1) (Homo sapiens (Human), UniProt Q8NER1); experiment: Acid activation assay (pH 5.0, FLIPR intracellular Ca2+); type: cell-based; settings: 37.5 μM antagonist, percentage of the maximal pH 5.0-induced response remaining, read-out: hTRPV1 H+ (max % remain)
Outline: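 Antagonism of acid-evoked Ca2+ influx measured by FLIPR Calcium-4 fluorescence after a pH 5.0 DPBS/MES stimulus, with compounds preincubated 3 min over 12 half-log concentrations. Cells: stable hTRPV1-expressing 1321N1 line, dye-loaded 90–120 min in the dark at 25 °C.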

[2] = test system: Sprague-Dawley rats; experiment: Capsaicin-induced secondary mechanical hypersensitivity; type: in vivo, rat
Description: (§1) Adult male Sprague-Dawley rats (250-300 g body weight, Charles River Laboratories, Portage, Mich.) were used. Animal handling and experimental protocols were approved by the Institutional Animal Care and Use Committee (IACUC) at Abbott Laboratories. For all surgical procedures, animals were maintained under isoflurane anesthesia (4-5% to induce, 1-3% to maintain), and the incision sites were sterilized using a 10% povidone-iodine solution prior to and after surgeries.
Rats were allowed to acclimate to the study room for 1 hour. They were then briefly restrained, and capsaicin was administered at 10 μg in 10 μL of vehicle (10% ethanol and 2-hydroxypropyl cyclodextrin) by intraplantar injection into the center of the right hind paw. Secondary mechanical hyperalgesia was measured at the heel away from the site of injection at 180 minutes following the administration of capsaicin (Joshi et al 2006, Neuroscience 143, 587-596). Compounds were administered orally (p.o.) one hour before testing ([…]).
Tactile allodynia was measured using calibrated von Frey filaments (Stoelting, Wood Dale, Ill.) as described in Chaplan, S. R., F. W. Bach, J. M. Pogrel, J. M. Chung and T. L. Yaksh, Quantitative assessment of tactile allodynia in the rat paw, J. Neurosci. Methods, 1994, 53, 55. Rats were placed into inverted individual plastic containers (20×12.5×20 cm) on top of a suspended wire mesh grid, and acclimated to the test chambers for 20 minutes. The von Frey filaments with different bending forces (starting with the lowest first and then progressively increasing) were presented perpendicularly to the plantar surface of the selected hind paw, and then hold in this position for approximately 8 sec with enough force to cause a slight bend in the filament. Positive responses included an abrupt withdrawal of the hind paw from the stimulus, or flinching behavior immediately following removal of the stimulus.

[3] = test system: Sprague-Dawley rats; experiment: Chronic constriction injury model of neuropathic pain; type: in vivo, rat; settings: 100 μmol/kg p.o., 1 hour after dosing
Description: as §1
A model of chronic constriction injury-induced (CCI) neuropathic pain was produced in rats by following the method of Bennett and Xie (Pain, 1988, 33:87). Following sterilization and anesthetic procedures, a 1.5 cm incision was made dorsal to the pelvis, and the biceps femoris and gluteous superficialis (right side) were separated. The right common sciatic nerve was exposed/isolated, and loosely ligated by 4 ligatures of chromic gut (5-0) with <1 mm spacing using hemostats and forceps. […]
Tactile allodynia was measured using calibrated von Frey filaments (Stoelting, Wood Dale, Ill.) as described in Chaplan, S. R., F. W. Bach, J. M. Pogrel, J. M. Chung and T. L. Yaksh, Quantitative assessment of tactile allodynia in the rat paw, J. Neurosci. […]

Sequence of human TRPV1 receptor (hTRPV1) (Q8NER1 whole entry): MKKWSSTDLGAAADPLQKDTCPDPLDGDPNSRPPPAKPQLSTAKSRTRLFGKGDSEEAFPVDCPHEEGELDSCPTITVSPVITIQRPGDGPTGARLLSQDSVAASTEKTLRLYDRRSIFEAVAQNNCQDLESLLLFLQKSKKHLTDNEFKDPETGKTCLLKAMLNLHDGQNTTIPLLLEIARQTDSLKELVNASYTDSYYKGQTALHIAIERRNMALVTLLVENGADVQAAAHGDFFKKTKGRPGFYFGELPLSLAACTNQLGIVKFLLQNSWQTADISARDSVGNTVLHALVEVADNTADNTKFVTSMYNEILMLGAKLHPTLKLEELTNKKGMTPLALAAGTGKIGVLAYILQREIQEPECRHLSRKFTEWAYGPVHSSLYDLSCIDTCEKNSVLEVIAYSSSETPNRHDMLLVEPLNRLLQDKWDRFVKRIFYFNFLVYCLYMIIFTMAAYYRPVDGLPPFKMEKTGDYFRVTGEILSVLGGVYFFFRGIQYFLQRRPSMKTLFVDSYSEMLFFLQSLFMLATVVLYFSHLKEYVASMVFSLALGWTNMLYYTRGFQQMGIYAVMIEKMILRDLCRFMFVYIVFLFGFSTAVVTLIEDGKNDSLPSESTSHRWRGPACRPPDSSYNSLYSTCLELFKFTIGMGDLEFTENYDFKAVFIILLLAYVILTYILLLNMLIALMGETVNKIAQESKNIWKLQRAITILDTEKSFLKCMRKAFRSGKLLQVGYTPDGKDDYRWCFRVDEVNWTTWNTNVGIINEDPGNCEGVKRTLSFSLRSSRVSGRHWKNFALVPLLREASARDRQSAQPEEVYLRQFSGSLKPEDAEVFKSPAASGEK

Structure (SMILES) | remaining activity at 37.5 µM ([1]; Table 1) | remaining activity at 37.5 µM ([1]; Table 2) | % effect ([2]; 100 μmol/kg p.o.) | % effect [3] | % effect ([2]; 10 μmol/kg p.o.)
O=C(Nc1cccc2[nH]ncc12)N[C@H]1CC[C@H](c2ccccc2)C1 [Example 14, 1-(1H-indazol-4-yl)-3-[(1S,3S)-3-phenylcyclopentyl]urea] | 36% | 36% | 48% | 53% | –
O=C(Nc1cccc2[nH]ncc12)N[C@@H]1CC[C@@H](c2ccccc2)C1 [Example 21, 1-(1H-indazol-4-yl)-3-[(1R,3R)-3-phenylcyclopentyl]urea] | 8% | 8% | – | – | –
Cc1cc2c(NC(=O)N[C@@H]3CC[C@H](c4ccccc4)C3)c(F)ccc2cn1 [Example 6, 1-(6-fluoro-3-methylisoquinolin-5-yl)-3-[(1R,3S)-3-phenylcyclopentyl]urea] | 62% | 62% | – | – | 59%
Cn1ncc2c(NC(=O)N[C@@H]3CC[C@H](c4ccccc4)C3)cccc21 [Example 4, 1-(1-methyl-1H-indazol-4-yl)-3-[(1R,3S)-3-phenylcyclopentyl]urea] | 37% | 21% | – | – | –
O=C(Nc1cccc2[nH]ncc12)N[C@H]1CC[C@@H](c2ccccc2)C1 [Example 28, 1-(1H-indazol-4-yl)-3-[(1S,3R)-3-phenylcyclopentyl]urea] | 41% | 41% | 81% | 54% | –

From patent US8802711B2, “TRPV1 antagonists” (AbbVie Inc., priority 2011, dated 2014)
